Source: patent US10385021B2, “Carbamate compound and use thereof” (SUMITOMO CHEMICAL COMPANY, LIMITED, priority 2015, dated 2019)

Test system: wheat rust fungus (Puccinia recondita)
Assay: Test Example 2: wheat rust, foliar spray before inoculation, lesion area
Type: in vivo
Settings: 200 ppm foliar spray, wheat (Shirogane), inoculated 5 days after spraying, formulation per Formulation Example 6

COC(=O)Nc1ccccc1COc1ccc(-c2ccccn2)cc1 [methyl N-(2-{[4-(pyridine-2-yl)phenoxy)methyl}phenyl)carbamate]
area of the lesion relative to untreated wheat: ≥ 70%
